Test results: ChEMBL document CHEMBL1146594, “The leupyrrins: a structurally unique family of secondary metabolites from the myxobacterium Sorangium cellulosum” (J Nat Prod, 2003)
Values after ≈ are worked out from the molar mass of the structure shown. Active and inactive are the calls of the source. The rule behind the calls is not given here.

Key:
[1] = system: Rhodotorula glutinis; assay: Inhibition of protein synthesis in Rhodotorula glutinis assessed as inhibition of [U-14C]protein hydrolysate incorporation at 2.5 ug/mL after 30 mins; assay type: functional, organism-based
[2] = system: L929; assay: Cytotoxicity against mouse L929 cells; assay type: cell-based
[3] = system: Rhodotorula glutinis; assay: Inhibition of DNA synthesis in Rhodotorula glutinis assessed as inhibition of [methyl-3H]thymine incorporation at 2.5 ug/mL after 30 mins; assay type: functional, organism-based
[4] = system: Mucor hiemalis; assay: Antifungal activity against Mucor hiemalis; assay type: functional
[5] = system: Rhodotorula glutinis; assay: Antifungal activity against Rhodotorula glutinis; assay type: functional
[6] = system: Candida albicans; assay: Antifungal activity against Candida albicans; assay type: functional
[7] = system: Rhodotorula glutinis; assay: Inhibition of RNA synthesis in Rhodotorula glutinis assessed as inhibition of [2-14C]uracil incorporation at 2.5 ug/mL after 30 mins; assay type: functional, organism-based
[8] = system: Botrytis cinerea; assay: Antifungal activity against Botrytis cinerea; assay type: functional
[9] = system: Aspergillus niger; assay: Antifungal activity against Aspergillus niger; assay type: functional

MIC [4]: 0.3 µg/mL (≈ 0.406 µM)
MIC [5]: 0.25 µg/mL (≈ 0.338 µM)
MIC [6]: > 25 µg/mL
MIC [8]: 0.8 µg/mL (≈ 1.08 µM)
MIC [9]: 0.8 µg/mL (≈ 1.08 µM)
SMILES: COCCC/C(C)=C1\COC(CC(C)C)\C1=C/C1N=C2OC1COC(=O)[C@@H](CC(C)C)CC(=O)OC1C(OC(=O)C1(C)CO)/C(C)=C/Cc1ccc2[nH]1 (some centres undefined) [LEUPYRRIN A1]
Activity [1]: Active
IC50 [2]: 1 µg/mL (≈ 1.35 µM)
Activity [3]: Active
Activity [7]: Active
